Results reported in patent US10836759B2, “Thiazole derivatives useful as mutant IDH1 inhibitors for treating cancer” (THE UNITED STATES OF AMERICA, AS REPRESENTED BY THE …, priority 2016, dated 2020).

Legend:
[1] = biological target: IDH1 R132H (Homo sapiens, UniProt O75874, R132H); experiment: Enzymatic inhibition assay, mutant IDH1 R132H (NADPH depletion coupled to diaphorase/resazurin); assay type: biochemical; details: IDH1 R132H enzyme, IC50 class
Method: (§1) Assays were conducted in a 1536-well black solid-bottom plate with a final assay volume of 9 μL.
Specifically, for IDH1 R132H, 3 μL of enzyme (4 mM β-ME, 0.0005 mg/mL IDH1 R132H, 150 mM NaCl, 20 mM Tris pH 7.5, 10 mM MgCl2, 0.05% BSA) were added to the plate, followed by the addition of 23 nL of test compound in DMSO. The plate was lidded and incubated at room temperature for 30 minutes at which time 3 μL of substrate were added (0.016 mM NADPH, 2 mM α-KG, 150 mM NaCl, 20 mM Tris pH 7.5, 10 mM MgCl2, 0.05% BSA). This reaction was incubated at room-temperature for 60 minutes at which time the detection mix was added (0.06 mg/mL diaphorase, 0.036 mM resazurin, 150 mM NaCl, 20 mM Tris pH 7.5, 10 mM MgCl2, 0.05% BSA). […]

[2] = biological target: IDH1 R132C (Homo sapiens, UniProt O75874, R132C); experiment: Enzymatic inhibition assay, mutant IDH1 R132C (NADPH depletion coupled to diaphorase/resazurin); assay type: biochemical; details: IDH1 R132C enzyme, IC50 class
Sequence of IDH1 R132C (O75874 whole entry R132C): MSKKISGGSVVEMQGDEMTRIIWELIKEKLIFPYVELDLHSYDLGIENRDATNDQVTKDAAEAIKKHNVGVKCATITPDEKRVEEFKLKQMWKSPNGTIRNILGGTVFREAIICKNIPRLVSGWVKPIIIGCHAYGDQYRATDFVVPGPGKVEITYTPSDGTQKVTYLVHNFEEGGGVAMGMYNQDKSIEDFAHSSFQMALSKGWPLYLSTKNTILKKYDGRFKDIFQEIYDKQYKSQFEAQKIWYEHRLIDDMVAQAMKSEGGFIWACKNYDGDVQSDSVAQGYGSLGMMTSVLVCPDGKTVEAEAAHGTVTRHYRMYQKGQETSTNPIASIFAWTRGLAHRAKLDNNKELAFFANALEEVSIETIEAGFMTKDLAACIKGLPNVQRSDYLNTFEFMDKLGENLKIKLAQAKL
Method: as §1
For IDH1 R132C, 3 μL of enzyme (0.00032 mg/mL IDH1 R132H, 10% glycerol, 50 mM potassium phosphate pH 6.5, 5 mM MgCl2, 0.03% BSA) were added to the plate, followed by the addition of 23 nL of test compound in DMSO. The plate was lidded and incubated at room temperature for 30 minutes at which time 3 μL of substrate were added (0.012 mM NADPH, 0.6 mM α-KG, 10% glycerol, 50 mM potassium phosphate pH 6.5, 5 mM MgCl2, 0.03% BSA). […]

Sequence of IDH1 R132H (O75874 whole entry R132H): as the sequence (O75874 whole entry R132C) above, with C132H counted along it

Row | SMILES | IC50 [1] | IC50 [2]
1 | CCOc1ccc(Cl)cc1-n1c(C=C(C)C)c(C(=O)N2CCNC[C@@H]2C)cc(-c2nc(-c3ccc(C(F)(F)F)cc3)cs2)c1=O [Compound 128] | < 0.3 µM | 0.3 to 1 µM
2 | CCOc1ccc(Cl)cc1-n1c(C=C(C)C)c(C(=O)N2CCNC[C@H]2C)cc(-c2nc(-c3ccc(C(F)(F)F)cc3)cs2)c1=O [Compound 129] | < 0.3 µM | < 0.3 µM
3 | CCOc1ccc(Cl)c(-n2c(C=C(C)C)c(C(=O)N3C[C@H]4CC[C@@H](C3)N4)cc(-c3nc(-c4ccc(C(F)F)cc4)cs3)c2=O)c1 [Compound 130] | < 0.3 µM | < 0.3 µM
4 | CCc1cccc(CC)c1-n1c(C=C(C)C)c(C(=O)N2CCNC[C@H]2C)cc(-c2nc(-c3ccc(C(F)F)cc3)cs2)c1=O [Compound 131] | < 0.3 µM | < 0.3 µM
5 | CCc1cccc(CC)c1-n1c(C=C(C)C)c(C(=O)N2CCNC[C@@H]2C)cc(-c2nc(-c3ccc(C(F)F)cc3)cs2)c1=O [Compound 132] | < 0.3 µM | < 0.3 µM
6 | CCc1ccc(Cl)cc1-n1c(C=C(C)C)c(C(=O)N2CC3CCC(C2)N3)cc(-c2nc(-c3ccc(Cl)cc3)cs2)c1=O [Compound 133] | < 0.3 µM | < 0.3 µM
7 | CCc1ccc(N(C)C)cc1-n1c(C=C(C)C)c(C(=O)N2CC3CCC(C2)N3)cc(-c2nc(-c3ccc(Cl)cc3)cs2)c1=O [Compound 134] | < 0.3 µM | < 0.3 µM
8 | CCOc1ccc(C#N)cc1-n1c(C=C(C)C)c(C(=O)N2CC3CCC(C2)N3)cc(-c2nc(-c3ccc(Cl)cc3)cs2)c1=O [Compound 135] | < 0.3 µM | < 0.3 µM
9 | CCOc1ccc(C#N)cc1-n1c(C=C(C)C)c(C(=O)N2CCNCC2)cc(-c2nc(-c3ccc(Cl)cc3)cs2)c1=O [Compound 136] | < 0.3 µM | < 0.3 µM
10 | CCOc1ccc(Cl)c(-n2c(C=C(C)C)c(C(=O)N3CCNCC3)cc(-c3nc(-c4ccc(OC)nc4)cs3)c2=O)c1 [Compound 137] | < 0.3 µM | < 0.3 µM
11 | CCOc1ccc(Cl)c(-n2c(C=C(C)C)c(C(=O)N3CC4CCC(C3)N4)cc(-c3nc(-c4ccc(OC)nc4)cs3)c2=O)c1 [Compound 138] | < 0.3 µM | < 0.3 µM
12 | CCOc1ccc(N(CC)CC)cc1-n1c(C=C(C)C)c(C(=O)N2CCNCC2)cc(-c2nc(-c3ccc(Cl)cc3)cs2)c1=O [Compound 145] | < 0.3 µM | < 0.3 µM
13 | CCOc1ccc(N(CC)CC)cc1-n1c(C=C(C)C)c(C(=O)N2C[C@H]3CC[C@@H](C2)N3)cc(-c2nc(-c3ccc(Cl)cc3)cs2)c1=O [Compound 146] | < 0.3 µM | 0.3 to 1 µM
14 | CC(C)=Cc1c(C(=O)N2CCNCC2)cc(-c2nc(-c3ccc(Cl)cc3)cs2)c(=O)n1-c1cc(N(C)C)ccc1Cl [Compound 147] | < 0.3 µM | < 0.3 µM
15 | CNc1ccc(Cl)c(-n2c(C=C(C)C)c(C(=O)N3CCNCC3)cc(-c3nc(-c4ccc(Cl)cc4)cs3)c2=O)c1 [Compound 148] | < 0.3 µM | < 0.3 µM
16 | CNc1ccc(Cl)c(-n2c(C=C(C)C)c(C(=O)N3C[C@H]4CC[C@@H](C3)N4)cc(-c3nc(-c4ccc(Cl)cc4)cs3)c2=O)c1 [Compound 149] | < 0.3 µM | < 0.3 µM
17 | CC(C)=Cc1c(C(=O)N2C[C@H]3CC[C@@H](C2)N3)cc(-c2nc(-c3ccc(Cl)cc3)cs2)c(=O)n1-c1cc(N(C)C)ccc1Cl [Compound 150] | 0.3 to 1 µM | < 0.3 µM
